# Results published in ChEMBL document CHEMBL1138883, “Synthesis and biological evaluation of new asymmetrical bisintercalators as potential antitumor drugs” (2006).
# The source made the active and inactive calls. The rule behind the calls is not given here.
# Experiments:
# PC-3 [1] = assay: Induction of apoptosis in PC3 measured as percentage of necrotic cells by biparametric PI/Annexin V assay at 1.6 uM after 8 hrs; format: functional, Homo sapiens
# PC-3 [2] = assay: Induction of apoptosis in PC3 cells measured as percentage of living cells by biparametric PI/Annexin V assay at 1.6 uM after 24 hrs; format: functional, Homo sapiens
# PC-3 [3] = assay: Reduction in PC3 cell viability after 48 hrs by FDA flow cytometer assay; format: functional, cell-based; settings: Homo sapiens
# PC-3 [4] = assay: Cytotoxicity against PC3 cells by SRB assay after 48 hrs; format: functional; settings: Homo sapiens, PC-3, 48 h
# PC-3 [5] = assay: Induction of apoptosis in PC3 measured as percentage of necrotic cells by biparametric PI/Annexin V assay at 1.6 uM after 48 hrs; format: functional, Homo sapiens
# PC-3 [6] = assay: Induction of apoptosis in PC3 measured as percentage of necrotic cells by biparametric PI/Annexin V assay at 1.6 uM after 4 hrs; format: functional, Homo sapiens
# PC-3 [7] = assay: Induction of apoptosis in PC3 cells measured as percentage of living cells by biparametric PI/Annexin V assay at 1.6 uM after 4 hrs; format: functional, Homo sapiens
# PC-3 [8] = assay: Induction of necrosis in PC3 cells by DNA fragmentation assay; format: functional, cell-based; settings: Homo sapiens
# PC-3 [9] = assay: Induction of apoptosis in PC3 measured as percentage of necrotic cells by biparametric PI/Annexin V assay at 1.6 uM after 24 hrs; format: functional, Homo sapiens
# [10] = Ratio of K(app) for [A-T] to [G-C]
# PC-3 [11] = assay: Induction of apoptosis in PC3 measured as percentage of early apoptotic cells by biparametric PI/Annexin V assay at 1.6 uM after 24 hrs; format: functional, Homo sapiens
# PC-3 [12] = assay: Induction of apoptosis in PC3 measured as percentage of late apoptotic cells by biparametric PI/Annexin V assay at 1.6 uM after 48 hrs; format: functional, Homo sapiens
# PC-3 [13] = assay: Induction of apoptosis in PC3 cells measured as percentage of living cells by biparametric PI/Annexin V assay at 1.6 uM after 8 hrs; format: functional, Homo sapiens
# PC-3 [14] = assay: Induction of apoptosis in PC3 measured as percentage of early apoptotic cells by biparametric PI/Annexin V assay at 1.6 uM after 8 hrs; format: functional, Homo sapiens
# PC-3 [15] = assay: Induction of apoptosis in PC3 cells measured as percentage of living cells by biparametric PI/Annexin V assay at 1.6 uM after 48 hrs; format: functional, Homo sapiens
# PC-3 [16] = assay: Induction of apoptosis in PC3 measured as percentage of late apoptotic cells by biparametric PI/Annexin V assay at 1.6 uM after 24 hrs; format: functional, Homo sapiens
# PC-3 [17] = assay: Induction of apoptosis in PC3 measured as percentage of early apoptotic cells by biparametric PI/Annexin V assay at 1.6 uM after 48 hrs; format: functional, Homo sapiens
# PC-3 [18] = assay: Induction of apoptosis in PC3 measured as percentage of late apoptotic cells by biparametric PI/Annexin V assay at 1.6 uM after 8 hrs; format: functional, Homo sapiens
# PC-3 [19] = assay: Induction of apoptosis in PC3 measured as percentage of late apoptotic cells by biparametric PI/Annexin V assay at 1.6 uM after 4 hrs; format: functional, Homo sapiens
# PC-3 [20] = assay: Induction of apoptosis in PC3 measured as percentage of early apoptotic cells by biparametric PI/Annexin V assay at 1.6 uM after 4 hrs; format: functional, Homo sapiens
# PC-3 [21] = assay: Induction of apoptosis in PC3 measured as percentage of early apoptotic cells by biparametric PI/Annexin V assay at 2.6 uM after 8 hrs; format: functional, Homo sapiens
# PC-3 [22] = assay: Induction of early apoptosis in PC3 cells by DNA fragmentation assay; format: functional, cell-based; settings: Homo sapiens
# PC-3 [23] = assay: Induction of apoptosis in PC3 cells measured as percentage of living cells by biparametric PI/Annexin V assay at 2.6 uM after 24 hrs; format: functional, Homo sapiens
# PC-3 [24] = assay: Induction of apoptosis in PC3 measured as percentage of necrotic cells by biparametric PI/Annexin V assay at 2.6 uM after 8 hrs; format: functional, Homo sapiens
# PC-3 [25] = assay: Induction of apoptosis in PC3 cells measured as percentage of living cells by biparametric PI/Annexin V assay at 2.6 uM after 4 hrs; format: functional, Homo sapiens
# PC-3 [26] = assay: Induction of apoptosis in PC3 measured as percentage of late apoptotic cells by biparametric PI/Annexin V assay at 2.6 uM after 48 hrs; format: functional, Homo sapiens
# PC-3 [27] = assay: Induction of apoptosis in PC3 measured as percentage of necrotic cells by biparametric PI/Annexin V assay at 2.6 uM after 48 hrs; format: functional, Homo sapiens
# PC-3 [28] = assay: Induction of apoptosis in PC3 measured as percentage of early apoptotic cells by biparametric PI/Annexin V assay at 2.6 uM after 24 hrs; format: functional, Homo sapiens
# PC-3 [29] = assay: Induction of apoptosis in PC3 cells measured as percentage of living cells by biparametric PI/Annexin V assay at 2.6 uM after 48 hrs; format: functional, Homo sapiens
# PC-3 [30] = assay: Induction of apoptosis in PC3 measured as percentage of late apoptotic cells by biparametric PI/Annexin V assay at 2.6 uM after 24 hrs; format: functional, Homo sapiens
# PC-3 [31] = assay: Induction of apoptosis in PC3 measured as percentage of necrotic cells by biparametric PI/Annexin V assay at 2.6 uM after 24 hrs; format: functional, Homo sapiens
# PC-3 [32] = assay: Induction of apoptosis in PC3 measured as percentage of early apoptotic cells by biparametric PI/Annexin V assay at 2.6 uM after 4 hrs; format: functional, Homo sapiens
# PC-3 [33] = assay: Induction of apoptosis in PC3 measured as percentage of early apoptotic cells by biparametric PI/Annexin V assay at 2.6 uM after 48 hrs; format: functional, Homo sapiens
# PC-3 [34] = assay: Induction of apoptosis in PC3 measured as percentage of late apoptotic cells by biparametric PI/Annexin V assay at 2.6 uM after 8 hrs; format: functional, Homo sapiens
# PC-3 [35] = assay: Induction of apoptosis in PC3 cells measured as percentage of living cells by biparametric PI/Annexin V assay at 2.6 uM after 8 hrs; format: functional, Homo sapiens
# PC-3 [36] = assay: Induction of apoptosis in PC3 measured as percentage of late apoptotic cells by biparametric PI/Annexin V assay at 2.6 uM after 4 hrs; format: functional, Homo sapiens
# PC-3 [37] = assay: Induction of apoptosis in PC3 measured as percentage of necrotic cells by biparametric PI/Annexin V assay at 2.6 uM after 4 hrs; format: functional, Homo sapiens
smiles,measurement,setting,value
CN(C)CCNC(=O)c1ccc(NCCCN(C)CCCNc2ccc3c(=O)n(CCN(C)C)c(=O)n4c5ccccc5c(=O)c2c34)c2c(O)c3cc([N+](=O)[O-])ccc3nc12.Cl,Activity,PC-3 [1],37.9%
same,Activity,PC-3 [2],37.5%
same,Activity,PC-3 [3],Time-dependent effect
same,GI50,PC-3 [4],7 nM
same,LC50 (concentration for 50% net cell kill),PC-3 [4],1600 nM
same,TGI,PC-3 [4],160 nM
same,Activity,PC-3 [5],55.7%
same,Activity,PC-3 [6],28.6%
same,Activity,PC-3 [7],66.5%
same,Activity,PC-3 [8],Active
same,Activity,PC-3 [9],44%
same,Selectivity ratio,[10],1.9
same,Activity,PC-3 [11],2.9%
same,Activity,PC-3 [12],35.2%
same,Activity,PC-3 [13],53%
same,Activity,PC-3 [14],3.6%
same,Activity,PC-3 [15],5%
same,Activity,PC-3 [16],15.6%
same,Activity,PC-3 [17],4.1%
same,Activity,PC-3 [18],5.5%
same,Activity,PC-3 [19],3%
same,Activity,PC-3 [20],1.9%
CN(C)CCNC(=O)c1ccc(NCCNCCNCCN2C(=O)c3cccc4cccc(c34)C2=O)c2c(O)c3cc([N+](=O)[O-])ccc3nc12,GI50,PC-3 [4],62 nM
same,LC50 (concentration for 50% net cell kill),PC-3 [4],2500 nM
same,TGI,PC-3 [4],390 nM
COc1cc2nc3c(C(=O)NCCN(C)C)ccc(NCCCN(C)CCCN4C(=O)c5cccc6cccc(c56)C4=O)c3c(O)c2cc1OC,GI50,PC-3 [4],150 nM
same,LC50 (concentration for 50% net cell kill),PC-3 [4],> 50000 nM
same,TGI,PC-3 [4],3800 nM
same,Selectivity ratio,[10],1.3
CN(C)CCn1c(=O)c2ccc(NCCCN(C)CCCN3C(=O)c4cccc5cc([N+](=O)[O-])cc(c45)C3=O)c3c(=O)c4ccccc4n(c1=O)c23.Cl,Activity,PC-3 [21],16.3%
same,Activity,PC-3 [22],Active
same,Activity,PC-3 [3],Time-dependent effect
same,Activity,PC-3 [23],31.5%
same,LC50 (concentration for 50% net cell kill),PC-3 [4],2600 nM
same,Activity,PC-3 [24],26.9%
same,Activity,PC-3 [25],67.7%
same,Activity,PC-3 [26],7.5%
same,Activity,PC-3 [27],87.3%
same,Activity,PC-3 [28],33.6%
same,Activity,PC-3 [29],1.2%
same,Activity,PC-3 [30],6.3%
same,Activity,PC-3 [31],28.6%
same,Selectivity ratio,[10],4.3
same,Activity,PC-3 [32],12.5%
same,Activity,PC-3 [33],4%
same,Activity,PC-3 [34],7.8%
same,Activity,PC-3 [35],49%
same,Activity,PC-3 [36],3.5%
same,Activity,PC-3 [37],16.3%
CN(C)CCCn1c(=O)c2ccc(NCCCN(C)CCCN3C(=O)c4cccc5cccc(c45)C3=O)c3c(=O)c4ccccc4n(c1=O)c23,GI50,PC-3 [4],420 nM
same,LC50 (concentration for 50% net cell kill),PC-3 [4],3800 nM
same,TGI,PC-3 [4],830 nM
same,Selectivity ratio,[10],3.4
CN(C)CCNC(=O)c1ccc(NCCCN(C)CCCN2C(=O)c3cccc4cc([N+](=O)[O-])cc(c34)C2=O)c2c(O)c3ccccc3nc12,GI50,PC-3 [4],600 nM
same,LC50 (concentration for 50% net cell kill),PC-3 [4],4400 nM
same,TGI,PC-3 [4],1000 nM
same,Selectivity ratio,[10],7.1
CN(C)CCCNC(=O)c1ccc(NCCCN(C)CCCN2C(=O)c3cccc4cccc(c34)C2=O)c2c(O)c3ccccc3nc12,GI50,PC-3 [4],600 nM
same,LC50 (concentration for 50% net cell kill),PC-3 [4],4100 nM
same,TGI,PC-3 [4],990 nM
same,Selectivity ratio,[10],6.9
COc1ccc2c(c1)c(=O)c1c(NCCCN(C)CCCN3C(=O)c4cccc5cccc(c45)C3=O)ccc3c(=O)n(CCN(C)C)c(=O)n2c31,GI50,PC-3 [4],51 nM
same,LC50 (concentration for 50% net cell kill),PC-3 [4],4000 nM
same,TGI,PC-3 [4],850 nM
same,Selectivity ratio,[10],4.5
COc1cc2c(=O)c3c(NCCCN(C)CCCN4C(=O)c5cccc6cc([N+](=O)[O-])cc(c56)C4=O)ccc4c(=O)n(CCN(C)C)c(=O)n(c2cc1OC)c43,GI50,PC-3 [4],17 nM
same,LC50 (concentration for 50% net cell kill),PC-3 [4],4000 nM
same,TGI,PC-3 [4],340 nM
same,Selectivity ratio,[10],1.6
